{
  "source": "patent US11371055B2",
  "about": "“Herbicide resistance genes” (CORTEVA AGRISCIENCE LLC, priority 2005, dated 2022)",
  "key": {"[1]": {"test_system": "PAT/Cry1F-transformed Arabidopsis (auxin-sensitive transformed control)", "experiment": "T1 Arabidopsis postemergence herbicide dose response, transformed control", "type": "in vivo, Arabidopsis thaliana", "protocol": "Seven days after planting (DAP) and again 11 DAP, T1 plants (cotyledon and 2-4-lf stage, respectively) were sprayed with a 0.2% solution of Liberty herbicide (200 g ai/L glufosinate, Bayer Crop Sciences, Kansas City, Mo.) at a spray volume of 10 ml/tray (703 L/ha) using a DeVilbiss compressed air spray tip to deliver an effective rate of 280 g ai/ha glufosinate per application. Survivors (plants actively growing) were identified 4-7 days after the final spraying and transplanted individually into 3-inch pots prepared with potting media (Metro Mix 360). Transplanted plants were covered with humidity domes for 3-4 days and placed in a 22° C. growth chamber as before or moved to directly to the greenhouse. Domes were subsequently removed and plants reared in the greenhouse (22±5° C., 50±30% RH, 14 h light:10 dark, minimum 500 μE/m^2 s^1 natural+supplemental light) at least 1 day prior to testing for the ability of AAD-12 (v1) (plant optimized gene) to provide phenoxy auxin herbicide resistance.\nT1 plants were then randomly assigned to various rates of 2,4-D. For Arabidopsis, 50 g ae/ha 2,4-D is an effective dose to distinguish sensitive plants from ones with meaningful levels of resistance. Elevated rates were also applied to determine relative levels of resistance (50, 200, 800, or 3200 g ac/ha). Tables 10 and 11 show comparisons drawn to an aryloxyalkanoate herbicide resistance gene (AAD-1 (v3)) previously described in PCT/US2005/014737.\nAll auxin herbicide applications were made using the DeVilbiss sprayer as described above to apply 703 L/ha spray volume (0.4 ml solution/3-inch pot) or applied by track sprayer in a 187 L/ha spray volume. 2,4-D used was either technical grade (Sigma, St. Louis, Mo.) dissolved in DMSO and diluted in water (<1% DMSO final concentration) or the commercial dimethylamine salt formulation (456 g ac/L, NuFarm, St Joseph, Mo.). Dichlorprop used was commercial grade formulated as potassium salt of R-dichlorprop (600 g ai/L, AH Marks). As herbicide rates increased beyond 800 g ae/ha, the pH of the spray solution became exceedingly acidic, burning the leaves of young, tender Arabidopsis plants and complicating evaluation of the primary effects of the herbicides. It became standard practice to apply these high rates of herbicides in 200 mM HEPES buffer, pH 7.5.\nThe first Arabidopsis transformations were conducted using AAD-12 (v1) (plant optimized gene). T1 transformants were first selected from the background of untransformed seed using a glufosinate selection scheme. Over 300,000 T1 seed were screened and 316 glufosinate resistant plants were identified (PAT gene), equating to a transformation/selection frequency of 0.10% which lies in the normal range of selection frequency of constructs where PAT+Liberty are used for selection. T1 plants selected above were subsequently transplanted to individual pots and sprayed with various rates of commercial aryloxyalkanoate herbicides. Table 11 compares the response of AAD-12 (v1) and control genes to impart 2,4-D resistance to Arabidopsis T1 transformants. Response is presented in terms of % visual injury 2 WAT. […] Since each T1 is an independent transformation event, one can expect significant variation of individual T1 responses within a given rate. An arithmetic mean and standard deviation is presented for each treatment. The range in individual response is also indicated in the last column for each rate and transformation. PAT/Cry1F-transformed Arabidopsis served as an auxin-sensitive transformed control. The AAD-12 (v1) gene imparted herbicide resistance to individual T1 Arabidopsis plants. Within a given treatment, the level of plant response varied greatly and can be attributed to the fact each plant represents an independent transformation event. Of important note, at each 2,4-D rate tested, there were individuals that were unaffected while some were severely affected. […]"}, "[2]": {"test_system": "wild-type rice (Clearfield 131)", "experiment": "Field tolerance of rice, wild-type", "type": "in vivo, Oryza sativa", "settings": "for % Visual injury 7DAT / % Visual injury 15DAT: Wild-type Clearfield", "protocol": "(§1) A field level tolerance trial was conducted with AAD-12 (v1) event pDAB4101[20] and one wild-type rice (Clearfield 131) at Wayside, Miss. (a non-transgenic imidazolinone-resistant variety). The experimental design was a randomized complete block design with a single replication. […] Within each herbicide treatment, two rows of T1 generation pDAB4101[20] and two rows of Clearfield rice were planted using a small plot drill with 8-inch row spacing. The pDAB4101[20] rice contained the AHAS gene as a selectable marker for the AAD-12(v1) gene. Imazethapyr was applied at the one leaf stage as selection agent to remove any AAD-12 (v1) null plants from the plots. Herbicide treatments were applied when the rice reached the 2 leaf stage using compressed air backpack sprayer delivering 187 L/ha carrier volume at 130-200 kpa pressure. […]"}, "[3]": {"test_system": "AAD-12 (v1) event pDAB4101[20] T1 rice", "experiment": "Field tolerance of rice, AAD-12 event", "type": "in vivo, Oryza sativa", "settings": "for visual injury: 7 or 15DAT; for % Visual injury 7DAT / % Visual injury 15DAT: AAD-12 event pDAB4101[20]", "protocol": "as §1"}, "[4]": {"settings": "50 g ae/ha 2,4-D postemergence, 2 WAT"}, "[5]": {"settings": "200 g ae/ha 2,4-D postemergence, 2 WAT"}, "[6]": {"settings": "800 g ae/ha 2,4-D postemergence, 2 WAT"}, "[7]": {"settings": "3200 g ae/ha 2,4-D postemergence, 2 WAT"}, "[8]": {"settings": "50 g ae/ha R-dichlorprop postemergence"}, "[9]": {"settings": "200 g ae/ha R-dichlorprop postemergence"}, "[10]": {"settings": "800 g ae/ha R-dichlorprop postemergence"}, "[11]": {"settings": "3200 g ae/ha R-dichlorprop postemergence"}},
  "data": [
    {"smiles": "O=C(O)COc1ccc(Cl)cc1Cl", "note": "[2,4-D, 2,4-dichlorophenoxyacetic acid]", "values": [
      {"measurement": "% Injury 20-40% (number of individuals)", "setting": "[1]; [4]", "result": 1},
      {"measurement": "% Injury <20% (number of individuals)", "setting": "[1]; [4]", "result": 4},
      {"measurement": "% Injury >40% (number of individuals)", "setting": "[1]; [4]", "result": 5},
      {"measurement": "% Injury Ave", "setting": "[1]; [4]", "result": 31, "unit": "%"},
      {"measurement": "% Injury 20-40% (number of individuals)", "setting": "[1]; [5]", "result": 0},
      {"measurement": "% Injury <20% (number of individuals)", "setting": "[1]; [5]", "result": 0},
      {"measurement": "% Injury >40% (number of individuals)", "setting": "[1]; [5]", "result": 10},
      {"measurement": "% Injury Ave", "setting": "[1]; [5]", "result": 70, "unit": "%"},
      {"measurement": "% Injury 20-40% (number of individuals)", "setting": "[1]; [6]", "result": 0},
      {"measurement": "% Injury <20% (number of individuals)", "setting": "[1]; [6]", "result": 0},
      {"measurement": "% Injury >40% (number of individuals)", "setting": "[1]; [6]", "result": 10},
      {"measurement": "% Injury Ave", "setting": "[1]; [6]", "result": 81, "unit": "%"},
      {"measurement": "% Injury 20-40% (number of individuals)", "setting": "[1]; [7]", "result": 0},
      {"measurement": "% Injury <20% (number of individuals)", "setting": "[1]; [7]", "result": 0},
      {"measurement": "% Injury >40% (number of individuals)", "setting": "[1]; [7]", "result": 10},
      {"measurement": "% Injury Ave", "setting": "[1]; [7]", "result": 91, "unit": "%"},
      {"measurement": "visual injury", "setting": "[2]; 2,4-D at 2240 g ae/ha, 7DAT", "result": 30, "unit": "%"},
      {"measurement": "visual injury", "setting": "[2]; 2,4-D at 2240 g ae/ha, 15DAT", "result": 35, "unit": "%"},
      {"measurement": "% Visual injury 7DAT", "setting": "[2]; 2240 GM AE/HA", "result": 15, "unit": "%"},
      {"measurement": "% Visual injury 15DAT", "setting": "[2]; 2240 GM AE/HA", "result": 35, "unit": "%"},
      {"measurement": "visual injury", "setting": "[3]; 2,4-D at 2240 g ae/ha", "result": "no injury"},
      {"measurement": "% Visual injury 7DAT", "setting": "[3]; 2240 GM AE/HA", "result": 0, "unit": "%"},
      {"measurement": "% Visual injury 15DAT", "setting": "[3]; 2240 GM AE/HA", "result": 0, "unit": "%"}
    ]},
    {"smiles": "O=C(O)COc1nc(Cl)c(Cl)cc1Cl", "note": "[triclopyr]", "values": [
      {"measurement": "visual injury", "setting": "[2]; 2× rate of triclopyr (560 g ae/ha), 7DAT", "result": 15, "unit": "%"},
      {"measurement": "visual injury", "setting": "[2]; 2× rate of triclopyr (560 g ae/ha), 15DAT", "result": 25, "unit": "%"},
      {"measurement": "% Visual injury 7DAT", "setting": "[2]; 840 GM AE/HA", "result": 30, "unit": "%"},
      {"measurement": "% Visual injury 15DAT", "setting": "[2]; 840 GM AE/HA", "result": 25, "unit": "%"},
      {"measurement": "visual injury", "setting": "[3]; 2× rate of triclopyr (560 g ae/ha)", "result": "no injury"},
      {"measurement": "% Visual injury 7DAT", "setting": "[3]; 840 GM AE/HA", "result": 0, "unit": "%"},
      {"measurement": "% Visual injury 15DAT", "setting": "[3]; 840 GM AE/HA", "result": 0, "unit": "%"}
    ]},
    {"smiles": "C[C@@H](Oc1ccc(Cl)cc1Cl)C(=O)O", "note": "[(R)-dichlorprop, R-2,4-dichlorophenoxypropionic acid]", "values": [
      {"measurement": "% Injury 20-40% (number of individuals)", "setting": "[1]; [8]", "result": 10},
      {"measurement": "% Injury <20% (number of individuals)", "setting": "[1]; [8]", "result": 0},
      {"measurement": "% Injury >40% (number of individuals)", "setting": "[1]; [8]", "result": 0},
      {"measurement": "% Injury Ave", "setting": "[1]; [8]", "result": 27, "unit": "%"},
      {"measurement": "% Injury 20-40% (number of individuals)", "setting": "[1]; [9]", "result": 0},
      {"measurement": "% Injury <20% (number of individuals)", "setting": "[1]; [9]", "result": 0},
      {"measurement": "% Injury >40% (number of individuals)", "setting": "[1]; [9]", "result": 10},
      {"measurement": "% Injury Ave", "setting": "[1]; [9]", "result": 69, "unit": "%"},
      {"measurement": "% Injury 20-40% (number of individuals)", "setting": "[1]; [10]", "result": 0},
      {"measurement": "% Injury <20% (number of individuals)", "setting": "[1]; [10]", "result": 0},
      {"measurement": "% Injury >40% (number of individuals)", "setting": "[1]; [10]", "result": 10},
      {"measurement": "% Injury Ave", "setting": "[1]; [10]", "result": 83, "unit": "%"},
      {"measurement": "% Injury 20-40% (number of individuals)", "setting": "[1]; [11]", "result": 0},
      {"measurement": "% Injury <20% (number of individuals)", "setting": "[1]; [11]", "result": 0},
      {"measurement": "% Injury >40% (number of individuals)", "setting": "[1]; [11]", "result": 10},
      {"measurement": "% Injury Ave", "setting": "[1]; [11]", "result": 90, "unit": "%"}
    ]}
  ]
}
